Marks after values point to notes of the source that are not given here.
How the values were obtained:
Type in all cases: in vivo
[1] = test system: caffeine solution containing 500 ppm; assay: Bitterness reduction in a bitter substance solution (expert panel), caffeine; settings: for Reduction in the bitterness impression: * = significant; for Bitterness impression (on scale of 1-10) b) with test substance: 25 ppm test substance + 500 ppm caffeine, scale 1 (not bitter) to 10 (extremely bitter), panel mean; for Effect on bitterness (in words): statement in the description referring to Example 1
Description: (§1) In order to quantify a reduction in the bitterness impression in a sample, the bitterness of a caffeine solution containing 500 ppm was compared by a panel of experts, in each case with a sample containing 500 ppm caffeine and also the respectively given quantity of a substance to be assessed (with regard to the ability thereof to reduce bitterness), with assessment on a scale from 1 (not bitter) to 10 (extremely bitter). For the evaluation, i.e. the calculation of the reduction (in %) of the bitterness impression, in each case, the mean values of the estimates by the expert panel for the caffeine solution and the sample to be compared, which contained caffeine and a substance under assessment were used. In addition to caffeine, other bitter substances such as theobromine, naringin, quinine hydrochloride dihydrate and salicin were tested using the same method.

[2] = test system: 5 ppm quinine hydrochloride dihydrate; assay: Bitterness reduction in a bitter substance solution (expert panel), quinine hydrochloride dihydrate
Description: as §1

[3] = test system: 250 ppm salicin; assay: Bitterness reduction in a bitter substance solution (expert panel), salicin
Description: as §1

[4] = test system: 300 ppm theobromine; assay: Bitterness reduction in a bitter substance solution (expert panel), theobromine; settings: for Reduction in the bitterness impression: 25 ppm test substance + 300 ppm theobromine vs theobromine alone; for Bitterness impression (on scale of 1-10) b) with test substance: 25 ppm test substance + 300 ppm theobromine, scale 1-10
Description: as §1

[5] = test system: 100 ppm naringin; assay: Bitterness reduction in a bitter substance solution (expert panel), naringin; settings: for Reduction in the bitterness impression: 25 ppm test substance + 100 ppm naringin vs naringin alone, * = significant; for Bitterness impression (on scale of 1-10) b) with test substance: 25 ppm test substance + 100 ppm naringin, scale 1-10
Description: as §1

[6] = test system: 750 ppm epigallocatechin gallate (EGCG); assay: Bitterness and astringency reduction in a bitter substance solution over time (expert panel); settings: 100 ppm test substance + 750 ppm EGCG; time 0 s
[7] = test system: 750 ppm epigallocatechin gallate (EGCG); assay: as above; settings: 100 ppm test substance + 750 ppm EGCG
Description: In order to quantify the reduction in the bitterness or astringency impression in a sample over a particular period of time, the bitterness or astringency of a solution containing 750 ppm epigallocatechin gallate (EGCG) was compared by a panel of experts, in each case with a sample containing 750 ppm epigallocatechin gallate and also the respectively shown quantity of a substance to be assessed (with regard to the ability thereof to reduce bitterness and/or astringency), in this case matairesinol (Compound 1-(−)).
Assessment was carried out on a scale from 1 (not bitter) to 10 (extremely bitter) or 1 (not astringent) to 10 (extremely astringent). The assessment by the panelists was carried out at specified time points (10 seconds, 30 seconds, 50 seconds and 70 seconds after ingestion of the respective sample). The samples were assessed by the panellists one after another following neutralisation. For the evaluation, i.e. the calculation of the reduction (in %) of the bitterness impression or astringency impression, at each time point, the mean values of the estimates by the expert panel for the epigallocatechin gallate solution and the sample to be compared therewith which contained the epigallocatechin gallate and the substance under assessment (in this case: matairesinol (Compound 1-(−)) were used.

[8] = 25 ppm test substance + 500 ppm caffeine vs 500 ppm caffeine alone

## COc1cc(C2c3cc(O)c(OC)cc3CC(CO)C2CO)ccc1O (single isomer, unassigned; (+)) [(+)-isolariciresinol (5-(+)), 1,2,3,4-tetrahydro-7-hydroxy-1-(4-hydroxy-3-methoxy-phenyl)-6-methoxy-2,3-naphthalenedimethanol]
[1]; [8]
  Reduction in the bitterness impression: 10.3%
[1]
  Bitterness impression (on scale of 1-10) b) with test substance: 4.1 ± 2.21

## COc1cc(C[C@H]2CO[C@H](c3ccc(O)c(OC)c3)[C@H]2CO)ccc1O [(+)-lariciresinol (3-(+)), 4-[[(3R,4R,5S)-5-(4-hydroxy-3-methoxyphenyl)-4-(hydroxy-methyl)-oxolan-3-yl]methyl]-2-methoxyphenol]
[2]; 25 ppm test substance + 5 ppm quinine hydrochloride dihydrate vs quinine alone, * = significant
  Reduction in the bitterness impression: 30.9%*
[2]; 25 ppm test substance + 5 ppm quinine hydrochloride dihydrate, scale 1-10
  Bitterness impression (on scale of 1-10) b) with test substance: 2.5 ± 1.02
[1]; [8]
  Reduction in the bitterness impression: 38.6%*
[1]
  Bitterness impression (on scale of 1-10) b) with test substance: 2.9 ± 1.41
[3]; 25 ppm test substance + 250 ppm salicin vs salicin alone
  Reduction in the bitterness impression: 17.1%
[3]; 25 ppm test substance + 250 ppm salicin, scale 1-10
  Bitterness impression (on scale of 1-10) b) with test substance: 5.7 ± 2.97
[4]
  Reduction in the bitterness impression: 10.7%
  Bitterness impression (on scale of 1-10) b) with test substance: 3.7 ± 2.24
[5]
  Reduction in the bitterness impression: 39.5%*
  Bitterness impression (on scale of 1-10) b) with test substance: 3.6 ± 1.75

## COc1cc(C[C@H]2C(=O)OC[C@@H]2Cc2ccc(OC)c(OC)c2)ccc1O [(−)-arctigenin (4), (3R,4R)-4-[(3,4-dimethoxyphenyl)methyl]-3-[(4-hydroxy-3-methoxy-phenyl)methyl]oxolan-2-one]
[1]; [8]
  Reduction in the bitterness impression: 11.5%
[1]
  Bitterness impression (on scale of 1-10) b) with test substance: 2.8 ± 1.68

## COc1cc(C[C@H]2C(=O)OC[C@@H]2[C@H](O)c2ccc(O)c(OC)c2)ccc1O [(−)-hydroxymatairesinol(2-(−)), (3R,4R)-4-[(S)-hydroxy-(4-hydroxy-3-methoxy-phenyl)methyl]-3-[(4-hydroxy-3-methoxyphenyl)methyl]oxolan-2-one]
[1]; [8]
  Reduction in the bitterness impression: 41.9%*
[1]
  Bitterness impression (on scale of 1-10) b) with test substance: 2.6 ± 1.72

## COc1cc(C[C@H]2COC(=O)[C@@H]2Cc2ccc(O)c(OC)c2)ccc1O [(−)-matairesinol (1-(−)), (3R,4R)-3,4-bis[(4-hydroxy-3-methoxyphenyl)methyl]oxolan-2-one]
[6]
  % Reduction in the astringency impression: −11%
  % reduction in the bitterness impression: −15%
[1]; [8]
  Reduction in the bitterness impression: 35.5%*
[1]
  Bitterness impression (on scale of 1-10) b) with test substance: 2.7 ± 1.77
[4]
  Reduction in the bitterness impression: 24.7%
  Bitterness impression (on scale of 1-10) b) with test substance: 3.4 ± 1.49
[5]
  Reduction in the bitterness impression: 15.1%
  Bitterness impression (on scale of 1-10) b) with test substance: 4.9 ± 2.38
[7]; time 10 s
  % Reduction in the astringency impression: −10%*
  % reduction in the bitterness impression: −30%*
[7]; time 30 s
  % Reduction in the astringency impression: −15%
  % reduction in the bitterness impression: −38%*
[7]; time 50 s
  % Reduction in the astringency impression: −20%
  % reduction in the bitterness impression: −33%*
[7]; time 70 s
  % Reduction in the astringency impression: −23%
  % reduction in the bitterness impression: −28%

## COc1cc([C@@H]2c3cc(O)c(OC)cc3C[C@H]3C(=O)OC[C@@H]23)ccc1O [(−)-α-conidendrin (6-(−)), (3aR,9R,9aS)-7-hydroxy-9-(4-hydroxy-3-methoxyphenyl)-6-methoxy-3a,4,9,9a-tetrahydro-1H-benzo[f][2]benzofuran-3-one]
[1]; [8]
  Reduction in the bitterness impression: 20.8%
[1]
  Bitterness impression (on scale of 1-10) b) with test substance: 2.5 ± 0.94

## COc1cc(C[C@@H](CO)[C@H](CO)Cc2ccc(O)c(OC)c2)ccc1O [secoisolariciresinol, reference compound]
[1]; 25 ppm test substance + 500 ppm caffeine vs 500 ppm caffeine alone, comparative example
  Amplification of the bitterness impression (printed in column Reduction in the bitterness impression): 34%
[1]
  Bitterness impression (on scale of 1-10) b) with test substance: 5.2 ± 2.6
  Effect on bitterness (in words): amplifies the bitterness
[1]; listed as Secoisolariciresinol
  Effect on bitterness (in words): capable of amplifying bitter taste impressions
